Data from ChEMBL document CHEMBL3045785, “Synthesis and anti-inflammatory activity of 1-acetyl/propanoyl-5-aryl-3-(4-morpholinophenyl)-4,5-dihydro-1H-pyrazole derivatives” (2012).

Legend:
Rattus norvegicus [1] = experiment: Anti-inflammatory activity in Rattus norvegicus albino (rat) assessed as inhibition of carrageenan-induced paw edema at 10 mg/kg, ip administered 1 hr prior tocarrageenan-challenge measured after 3 hr relative to indomethacin; format: functional; settings: route intraperitoneal
Rattus norvegicus [2] = experiment: Anti-inflammatory activity in Rattus norvegicus albino (rat) assessed as inhibition of carrageenan-induced paw edema at 10 mg/kg, ip administered 1 hr prior tocarrageenan-challenge measured after 3 hr relative to control; format: functional; settings: route intraperitoneal

Row | Structure (SMILES) | inhibition in vivo at 10 mg/kg (Rattus norvegicus [1]) | inhibition in vivo at 10 mg/kg (Rattus norvegicus [2])
1 | CCC(=O)N1N=C(c2ccc(N3CCOCC3)cc2)CC1c1cc(OC)c(OC)c(OC)c1 (stereo not given) | 1.84% | 1.08%
2 | CCC(=O)N1N=C(c2ccc(N3CCOCC3)cc2)CC1c1ccc(OC)c(OC)c1 (stereo not given) | 52.8% | 31.1%
3 | COc1ccc(C2CC(c3ccc(N4CCOCC4)cc3)=NN2C(C)=O)cc1OC (stereo not given) | 9.82% | 5.78%
4 | CCC(=O)N1N=C(c2ccc(N3CCOCC3)cc2)CC1c1ccc(Br)cc1 (stereo not given) | 31.3% | 18.4%
5 | CCC(=O)N1N=C(c2ccc(N3CCOCC3)cc2)CC1c1cc(OC)cc(OC)c1 (stereo not given) | 27% | 15.9%
6 | CCC(=O)N1N=C(c2ccc(N3CCOCC3)cc2)CC1c1ccccc1OC (stereo not given) | 10.4% | 6.14%
7 | CCC(=O)N1N=C(c2ccc(N3CCOCC3)cc2)CC1c1cccs1 (stereo not given) | 1.84% | 1.08%
8 | COc1cc(C2CC(c3ccc(N4CCOCC4)cc3)=NN2C(C)=O)cc(OC)c1OC (stereo not given) | 6.13% | 3.61%
9 | COc1cc(OC)cc(C2CC(c3ccc(N4CCOCC4)cc3)=NN2C(C)=O)c1 (stereo not given) | 22.7% | 13.4%
10 | CC(=O)N1N=C(c2ccc(N3CCOCC3)cc2)CC1c1cccs1 (stereo not given) | 11.7% | 6.86%
11 | CC(=O)N1N=C(c2ccc(N3CCOCC3)cc2)CC1c1ccc(Br)cc1 (stereo not given) | 19% | 11.2%
12 | COc1ccccc1C1CC(c2ccc(N3CCOCC3)cc2)=NN1C(C)=O (stereo not given) | 52.8% | 31.1%
13 | COc1ccc2c(c1)c(CC(=O)O)c(C)n2C(=O)c1ccc(Cl)cc1 [INDOMETHACIN] |  | 58.8%
